Molecules are shown by their SMILES. Like-named read-outs stand apart in the source and are kept apart here.

This is an account of results in patent US11903927B2, “Combination treatment of cancer” (Scandion Oncology A/S, priority 2016, dated 2024).

The procedure of data set [1]: The in vivo anti-tumor effect of NS3728 on C6 glioma cells given either as monotherapy (40 mg/kg/day) or in combination with temozolomide (Temodal, 25 or 5 mg/kg/day) was tested in two separate experiments, using either the xenograft method or the subcutaneous air sac model (SAS; see Lichtenberg, J., P. J. Hjarnaa, P. E. Kristjansen, D. Hansen & L. Binderup: The rat subcutaneous air sac mode: A quantitative assay of antiangiogenesis in induced vessels Pharmacology & Toxicology, 1999, 84, 34-40).
In the first study 5 million C6 rat glioma cells were inoculated into the flank of Fisher rats.

Data set [2] deals with human HT29 colon cancer cell line. As to the kind of experiment: HT29 colon tumour xenograft. In kind it is in vivo. The note with it: mice; NS3728 80 mg/kg PO, paclitaxel 5 mg/kg IP, 5-flourouracil 30 mg/kg IP, alone or combined; dosing days 4-8, 11-15, 18-22. The protocol:
The in vivo antitumor effect of NS3728 on the human HT29 colon cancer cell line were tested as monotherapy (80 mg/kg) respectively in combination with paclitaxel (5 mg/kg) or 5-flourouracil (30 mg/kg) in two independent experimental series. NS3728 was given per oral (PO), whereas both paclitaxel and 5-flourouracil were dosed intraperitoneally (IP) by injection.
The dosing occurred in periods (days 4-8; days 11-15, days 18-22) with daily dosing of both NS3728 and cytotoxic drug, interrupted by dosing holidays.

Data set [3] has as its system Docetaxel resistant MDA-MB-231 breast cancer cells. As to the kind of experiment: MTT cell viability, docetaxel resistant MDA-MB-231. In kind it is cell-based, human. The text has this: (§1) Breast cancer is a heterogenous disease and at least 6 subtypes of breast cancer have been described previously by Soerlie et al (PMID: 11553815). As a major difference, breast cancer can be divided into hormone (estrogen and progesterone) receptor positive and hormone receptor negative breast cancer. We have in our experiments included these two major subtypes. We established human breast cancer cell lines that are resistant to the chemotherapy docetaxel as described in Hansen et al 2015 (PMID: 25596703). These cell lines are MCF-7 and MDA-MB-231.
(§2) Subsequently, NS3728, docetaxel or combinations of the two drugs were added for 72 hours before cell viability was determined. […] Each data point was carried out in triplicate.

Data set [4] has as its system SN-38 resistant LoVo CRC cancer cells.
Protocol: (§5) The cells were seeded in 96-well plates (10,000 cells/well) and allowed to adhere for 24 hours. Subsequently, NS3728, OXP, SN-38 or combinations of the drugs were added for 48 hours before cell viability was determined. All values are expressed in percentage of untreated cells (named: “no treatment”). “DMSO” refers to the solvent control as both NS3728 and chemotherapeutic drugs are diluted in DMSO. Thus, the DMSO (Dimethyl sulfoxide) control is included to investigate any potential effect on cell viability by the organic solvent. Each data point was carried out in triplicate.
The next data set relates to cancer cells. The note with it: in vitro; cited from earlier work.
For data set [5], the system named is SN-38 resistant LoVo CRC cancer cells. Nature of the data set: cells. Particulars: Homo sapiens, 48 h, read-out: cell viability.
Protocol: as §5
The next data set concerns C6 glioma cells. As to the kind of experiment: C6 glioma subcutaneous air sac (SAS) model. In kind it is in vivo, rat. Particulars: 2.5 million C6 cells on air sac membrane; NS3728 40 mg/kg/day oral, temozolomide 5 mg/kg/day, alone or combined; 10 days of treatment. The protocol:
In the second study the tumour growth was retarded by inoculating only half the number of cells (2.5 million of C6 cells per animal) and making use of the subcutaneous air sac (SAS) technique. In brief, the rats were anaesthetized with CO2/O2 and 10-15 ml of air was introduced dorsally by subcutaneous injections to produce an air sac located approximately 4-5 cm behind the head. The wall of the air sac became progressively thicker with time and after 10-14 days a sufficient lining of cells with the appearance of a transparent membrane had been established. The C6 glioma cells were inoculated in the rats directly on the membrane. The treatment was started at the day of inoculation and the study was terminated on day 10 of treatment.

For data set [6], the system named is docetaxel resistant MCF-7 breast cancer cells. As to the kind of experiment: MTT cell viability, docetaxel resistant MCF-7. The data set is classed as cell-based, human. Particulars: 72 hours.
Text: as §1, §2

A further data set deals with VRAC. The note with it: read-out: IC50 as VRAC blocker; cited from earlier work.
Data set [7] concerns SN-38 resistant HCT116 CRC cancer cells. Nature of the data set: MTT cell viability, SN-38 resistant HCT116. In kind it is cell-based, human. The method, then: (§3) These cell lines are HCT116, HT29 and LoVo.
(§4) Each data point was carried out in triplicate.

Data set [8] concerns oxaliplatin resistant HT29 CRC cancer cells. Nature of the data set: MTT cell viability, oxaliplatin resistant HT29. In kind it is cell-based, human. The protocol: as §3, §4
Data set [9] concerns tamoxifen-resistant MCF-7/LCC2 cells. Nature of the data set: MTT cell viability, tamoxifen resistant MCF-7/LCC2. In kind it is cell-based, human. The note with it: 40 μM NS3728, 72 hours. The method, then: These cell lines are MCF-7/LCC2. We also established human breast cancer cell lines that are resistant to the anti-estrogen Fulvestrant as described in Brünner et al 1997 (PMID: 9270017). MCF-7 is an estrogen and progesterone receptor positive cell line. […] Subsequently, NS3728, docetaxel or combinations of the two drugs were added for 72 hours before cell viability was determined. […] Each data point was carried out in triplicate.

For data set [10], the system named is SN-38 resistant HT29 CRC cancer cells.
Protocol: as §5
The test system of data set [11] is fulvestrant-resistant MCF-7/LCC9 cells. As to the kind of experiment: MTT cell viability, fulvestrant resistant MCF-7/LCC9. In kind it is cell-based, human. The method, then: These cell lines are MCF-7/LCC2. We also established human breast cancer cell lines that are resistant to the anti-estrogen Fulvestrant as described in Brünner et al 1997 (PMID: 9270017). MCF-7 is an estrogen and progesterone receptor positive cell line.
as §2

Protocol for HCT116 parental cells: (§6) The cells were seeded in 96-well plates (10,000 cells/well) and allowed to adhere for 24 hours. Subsequently, NS3728, OXP, SN-38 or combinations of NS3728 with one of the cytotoxic drugs were added for 48 hours before cell viability was determined. All values are expressed in percentage of untreated cells (named: “no treatment”). “DMSO” refers to the solvent control as both NS3728 and chemotherapeutic drugs are diluted in DMSO. Thus, the DMSO (Dimethyl sulfoxide) control is included to investigate any potential effect on cell viability by the organic solvent. Each data point was carried out in triplicate.
Protocol for HT29 parental cells: as §6
Protocol for LoVo parental cells: as §6

With `O=C(Nc1cc(C(F)(F)F)cc(C(F)(F)F)c1)Nc1ccc(Br)cc1-c1nnn[nH]1` [NS3728], in data set [1] (5 million C6 cells, flank of Fisher rats, NS3728 40 mg/kg/day oral, temozolomide 25 mg/kg/day, alone or combined, terminated day 4 of treatment), the “tumour growth rate / anti-tumor effect” value is “neither NS3728 (40 mg/kg/day) nor temozolomide (25 mg/kg/day) exhibited any significant anti-tumor effect”. For the same compound, the “tumour volume growth curves” value in [2] was “mild (non-significant) depression of the growth curves”. The cell viability entry in data set [3] (50 μM NS3728, 72 hours) was “did not decrease cell viability”; in data set [4] (30 μM NS3728, 48 hours) it was “about 80 % of untreated cells”; in [4] (50 μM NS3728, 48 hours) it was “about 50 % of untreated cells”; with HCT116 parental cells (40 μM NS3728, SN-38 experiment, 48 hours), “about 50 % of untreated cells”; in the data set on HCT116 parental cells (50 μM NS3728, SN-38 experiment, 48 hours), “about 50 % of untreated cells”; with HCT116 parental cells (NS3728 alone in the OXP experiment (concentration not given in the sentence), 48 hours) it was “about 50 % of untreated cells”. Further, the cell viability result is listed as “about 90 % of untreated cells” in the data set with HT29 parental cells (40 μM NS3728, 48 hours); “about 77 % of untreated cells” with HT29 parental cells (50 μM NS3728, 48 hours); “about 45 % of untreated cells” in the data set with LoVo parental cells (40 μM NS3728, 48 hours); “about 38 % of untreated cells” with LoVo parental cells (50 μM NS3728, 48 hours); “did not decrease cell viability” in data set [6] (40 μM NS3728 monotherapy); “about 85 % of untreated cells” in data set [7] (30 μM NS3728, 48 hours). The cell viability result in data set [8] (20 μM NS3728, 48 hours) is reported as “about 85 % of untreated cells”; in data set [9], 70 % of untreated control; in data set [10] (30 μM NS3728, 48 hours (increased viability)), “about 120 % of untreated cells”; in [10] (40 μM NS3728, 48 hours) it was “no effect on cell viability”; in [10] (50 μM NS3728, 48 hours), “about 85 % of untreated cells”; in [11] (40 μM NS3728, 72 hours), 60 % of untreated control. Also, the “inhibition of cisplatin mediated apoptosis” value in the data set with cancer cells was “inhibit cisplatin mediated apoptosis”. In addition, the viability at 40 µM in [5] was ~57%. In addition, the “tumour growth inhibition as measured by tumour weight” value in the data set on C6 glioma cells is given as “significant inhibition of tumour growth”. Also, the IC50 in the data set on VRAC is 400 nM.

Take `O=C(O)c1cc([N+](=O)[O-])ccc1NCCCc1ccccc1` [NPPB]: the IC50 in the data set with VRAC is 21000 nM.

Take `C[C@]12CC[C@@H]3c4ccc(O)cc4C[C@@H](CCCCCCCCC[S+]([O-])CCCC(F)(F)C(F)(F)F)[C@H]3[C@@H]1CC[C@@H]2O` (stereo partly drawn) [Fulvestrant, fulvestrant, reference compound]: in data set [11] (1 μM Fulvestrant, 72 hours), the cell viability entry is “no effect on the cell viability”.

Take `CC(=O)O[C@H]1C(=O)[C@@]2(C)[C@H]([C@H](OC(=O)c3ccccc3)[C@]3(O)C[C@H](OC(=O)[C@H](O)[C@@H](NC(=O)c4ccccc4)c4ccccc4)C(C)=C1C3(C)C)[C@]1(OC(C)=O)CO[C@@H]1C[C@@H]2O` [paclitaxel]: the “tumour volume growth curves” value in data set [2] is reported as “mild (non-significant) depression of the growth curves”.

Regarding `CCc1c2c(nc3ccc(O)cc13)-c1cc3c(c(=O)n1C2)COC(=O)[C@]3(O)CC` [SN-38, reference compound], the cell viability result in data set [4] (0.16 μM SN-38, 48 hours) was “about 78 % of untreated cells”; with HCT116 parental cells (0.16 μM SN-38, 48 hours), “about 50 % of untreated cells”; in the data set with HT29 parental cells (0.032 μM SN-38, 48 hours) it was “about 77 % of untreated cells”; in the data set on LoVo parental cells (0.0064 μM SN-38, 48 hours), “about 53 % of untreated cells”; in data set [7] (4 μM SN-38, 48 hours), “almost no effect on cell viability”; in data set [8] (0.1 μM SN-38, 48 hours), “about 43 % of untreated cells”. Also, the cell viability result in [10] (0.8 μM SN-38, 48 hours) is given as “about 78 % of untreated cells”.

For the compound `O=S(=O)(O)c1cc(N=C=S)ccc1C=Cc1ccc(N=C=S)cc1S(=O)(=O)O` [DIDS], the IC50 in the data set on VRAC is 26000 nM.

Regarding `Cn1nnc2c(C(N)=O)ncn2c1=O` [temozolomide, reference compound], the “signs of toxicity (subdued behaviour, hunched appearance, loss of body weight)” value in data set [1] (all animals treated with temozolomide 25 mg/kg/day) is on record as “Clear signs of toxicity”.

Take `O=C(Nc1ccc([N+](=O)[O-])cc1)Nc1ccc(Br)cc1-c1nnn[nH]1` [NS3749]: the IC50 with VRAC was 1400 nM.

Take `CC(=O)O[C@@]12CO[C@@H]1C[C@H](O)[C@@]1(C)C(=O)[C@H](O)C3=C(C)[C@@H](OC(=O)[C@H](O)[C@@H](NC(=O)OC(C)(C)C)c4ccccc4)C[C@@](O)([C@@H](OC(=O)c4ccccc4)[C@H]21)C3(C)C` [Docetaxel, docetaxel, reference compound]: the cell viability entry is given as “about 50 % of untreated controls” in [3] (150 nM Docetaxel, 72 hours) and “did not decrease cell viability” in [6] (65 nM Docetaxel monotherapy).

Take `O=C(Nc1cccc(C(F)(F)F)c1)Nc1ccc(Br)cc1-c1nnn[nH]1` [NS3623]: the IC50 with VRAC was 1800 nM.

`O=c1[nH]cc(F)c(=O)[nH]1` [5-flourouracil, 5-fluorouracil]: in [2], the “tumour volume growth curves” value was “mild (non-significant) depression of the growth curves”.

`O=C1[O][Pt]2([NH][C@@H]3CCCC[C@H]3[NH]2)[O]C1=O` [OXP, oxaliplatin, reference compound]: in the data set with HCT116 parental cells (OXP alone, 48 hours), the cell viability entry was “dose-dependently decreased cell viability”.

By viability is commonly meant the share of living cells, or the viability signal relative to a control. A word on the IC50: it is the concentration that inhibits the measured activity by half.
